Reference: patent publication US10642156B2, “Resist base material, resist composition and method for forming resist pattern” (Mitsubishi Gas Chemical Company, Inc., priority 2015, dated 2020)

Tests used:
[1] = Test on safe solvent solubility of compound; assay type: physicochemical; settings: 23° C., ultrasound 30 minutes, visually observed; for Safety solvent solubility test CHN: cyclohexanone (CHN); for Safety solvent solubility test PGME: propylene glycol monomethyl ether (PGME); for Safety solvent solubility test PGMEA: propylene glycol monomethyl ether acetate (PGMEA)
Procedure: (1) Test on Safe Solvent Solubility of Compound
The solubility of the compound in cyclohexanone (CHN), propylene glycol monomethyl ether (PGME), and propylene glycol monomethyl ether acetate (PGMEA) was evaluated according to the following standard using the dissolution amount in each solvent. For the measurement of the dissolution amount, the compound was precisely weighed into a test tube at 23° C., and the target solvent was added thereto at a predetermined concentration. Ultrasound was applied for 30 minutes in an ultrasonic cleaning machine. Then, the state of the liquid was visually observed.
Evaluation A: 20% by mass≤dissolution amount
Evaluation B: 10% by mass≤dissolution amount<20.0% by mass
Evaluation C: Dissolution amount<10% by mass

[2] = 10% thermal reduction temperature by thermogravimetry (TG); assay type: physicochemical; settings: nitrogen gas stream, 10° C./min to 500° C.
Procedure: (3) Thermal Reduction Temperature
“EXSTAR 6000 DSC” apparatus manufactured by SII NanoTechnology Inc. was used. About 5 mg of a sample was placed in an unsealed container made of aluminum, and the temperature was raised to 500° C. at a temperature increase rate of 10° C./min in a nitrogen gas (30 mL/min) stream. In this operation, 10% thermal reduction temperature was measured.

10% thermal reduction temperature [2]	Compound	Safety solvent solubility test CHN [1]	Safety solvent solubility test PGME [1]	Safety solvent solubility test PGMEA [1]
≥ 300 °C	Oc1ccc(C2=CC(C(c3ccc(I)cc3)c3cc(-c4ccc(O)cc4)ccc3O)C(O)C=C2)cc1 (stereo not drawn) [BiF-I-1]	A (Evaluation A: 20% by mass≤dissolution amount)	A (Evaluation A: 20% by mass≤dissolution amount)	A (Evaluation A: 20% by mass≤dissolution amount)
≥ 300 °C	Oc1ccc(-c2ccc(O)c(C(c3cccc(I)c3)c3cc(-c4ccc(O)cc4)ccc3O)c2)cc1 [BiF-I-3]	A (Evaluation A: 20% by mass≤dissolution amount)	A (Evaluation A: 20% by mass≤dissolution amount)	A (Evaluation A: 20% by mass≤dissolution amount)
≥ 300 °C	COc1cc(I)cc(C(c2cc(C3C=CC(O)=CC3)ccc2O)C2C=C(C3=CCC(O)C=C3)C=CC2O)c1 (stereo not drawn) [BiF-I-2]	A (Evaluation A: 20% by mass≤dissolution amount)	A (Evaluation A: 20% by mass≤dissolution amount)	A (Evaluation A: 20% by mass≤dissolution amount)
